# Source: PubChem BioAssay (NCI)
#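 All cell lines were grown in 96-well plates and treated with compound for 48 hours. TGI: concentration producing complete growth inhibition.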
# Assays:
# Assay in all cases: NCI tumour cell line growth inhibition, 48 h
# [1] = system: 786-0 renal
# [2] = system: A498 renal
# [3] = system: A549 NSCLC
# [4] = system: ACHN renal
# [5] = system: CAKI-1 renal
# [6] = system: CCRF-CEM leukemia
# [7] = system: COLO 205 colon
# [8] = system: DMS 114 small cell lung
# [9] = system: DMS 273 small cell lung
# [10] = system: EKVX NSCLC
# [11] = system: HCC-2998 colon
# [12] = system: HCT-116 colon
# [13] = system: HCT-15 colon
# [14] = system: HL-60(TB) leukemia
# [15] = system: HOP-62 NSCLC
# [16] = system: HOP-92 NSCLC
# [17] = system: HT29 colon
# [18] = system: IGROV1 ovarian
# [19] = system: K-562 leukemia
# [20] = system: KM12 colon
# [21] = system: KM20L2 colon
# [22] = system: LOX IMVI melanoma
# [23] = system: LXFL 529 NSCLC
# [24] = system: M14 melanoma
# [25] = system: M19-MEL melanoma
# [26] = system: MALME-3M melanoma
# [27] = system: MOLT-4 leukemia
# [28] = system: NCI-H226 lung
# [29] = system: NCI-H23 lung
# [30] = system: NCI-H460 lung
# [31] = system: NCI-H522 lung
# [32] = system: OVCAR-3 ovarian
# [33] = system: OVCAR-4 ovarian
# [34] = system: OVCAR-5 ovarian
# [35] = system: OVCAR-8 ovarian
# [36] = system: RPMI-8226 leukemia
# [37] = system: SF-268 CNS
# [38] = system: SF-295 CNS
# [39] = system: SF-539 CNS
# [40] = system: SK-MEL-2 melanoma
# [41] = system: SK-MEL-28 melanoma
# [42] = system: SK-MEL-5 melanoma
# [43] = system: SK-OV-3 ovarian
# [44] = system: SN12C renal
# [45] = system: SNB-19 CNS
# [46] = system: SNB-78 CNS
# [47] = system: SR leukemia
# [48] = system: SW-620 colon
# [49] = system: TK-10 renal
# [50] = system: U251 CNS
# [51] = system: UACC-257 melanoma
# [52] = system: UACC-62 melanoma
# [53] = system: UO-31 renal
# [54] = system: XF 498 CNS
# [55] = system: DLD-1 colon
# [56] = system: HOP-18 NSCLC
# [57] = system: RXF 393 renal
# [58] = system: SNB-75 CNS
structure (smiles),measurement,setting,value
CCOC(=O)/C(=C/c1ccccc1)N(CC)CC,TGI,[1],> 100 µM
same,TGI,[2],> 100 µM
same,TGI,[3],> 100 µM
same,TGI,[4],> 100 µM
same,TGI,[5],> 100 µM
same,TGI,[6],> 100 µM
same,TGI,[7],> 100 µM
same,TGI,[8],> 100 µM
same,TGI,[9],> 100 µM
same,TGI,[10],> 100 µM
same,TGI,[11],> 100 µM
same,TGI,[12],> 100 µM
same,TGI,[13],> 100 µM
same,TGI,[14],> 100 µM
same,TGI,[15],> 100 µM
same,TGI,[16],> 100 µM
same,TGI,[17],> 100 µM
same,TGI,[18],> 100 µM
same,TGI,[19],> 100 µM
same,TGI,[20],> 100 µM
same,TGI,[21],> 100 µM
same,TGI,[22],> 100 µM
same,TGI,[23],> 100 µM
same,TGI,[24],> 100 µM
same,TGI,[25],> 100 µM
same,TGI,[26],> 100 µM
same,TGI,[27],> 100 µM
same,TGI,[28],> 100 µM
same,TGI,[29],> 100 µM
same,TGI,[30],> 100 µM
same,TGI,[31],> 100 µM
same,TGI,[32],> 100 µM
same,TGI,[33],> 100 µM
same,TGI,[34],> 100 µM
same,TGI,[35],> 100 µM
same,TGI,[36],> 100 µM
same,TGI,[37],> 100 µM
same,TGI,[38],> 100 µM
same,TGI,[39],> 100 µM
same,TGI,[40],> 100 µM
same,TGI,[41],> 100 µM
same,TGI,[42],> 100 µM
same,TGI,[43],> 100 µM
same,TGI,[44],> 100 µM
same,TGI,[45],> 100 µM
same,TGI,[46],> 100 µM
same,TGI,[47],> 100 µM
same,TGI,[48],> 100 µM
same,TGI,[49],> 100 µM
same,TGI,[50],> 100 µM
same,TGI,[51],> 100 µM
same,TGI,[52],> 100 µM
same,TGI,[53],> 100 µM
same,TGI,[54],> 100 µM
CC(C)(C)[Si](C)(C)O/N=C\c1cccc(O[Si](C)(C)C(C)(C)C)c1,TGI,[1],35.1 µM
same,TGI,[3],37.4 µM
same,TGI,[4],32 µM
same,TGI,[5],42.2 µM
same,TGI,[6],41.7 µM
same,TGI,[7],33.1 µM
same,TGI,[55],33.6 µM
same,TGI,[8],35.6 µM
same,TGI,[9],32.6 µM
same,TGI,[10],36.9 µM
same,TGI,[11],34.7 µM
same,TGI,[12],34.1 µM
same,TGI,[13],35.7 µM
same,TGI,[14],36.8 µM
same,TGI,[56],42.3 µM
same,TGI,[15],38.9 µM
same,TGI,[16],28.8 µM
same,TGI,[17],31 µM
same,TGI,[18],34.9 µM
same,TGI,[19],35.4 µM
same,TGI,[20],32.2 µM
same,TGI,[21],38.8 µM
same,TGI,[22],35.5 µM
same,TGI,[23],29.1 µM
same,TGI,[24],29.4 µM
same,TGI,[25],34.6 µM
same,TGI,[26],62.1 µM
same,TGI,[27],36.8 µM
same,TGI,[30],32.6 µM
same,TGI,[32],29.8 µM
same,TGI,[33],34.2 µM
same,TGI,[34],35 µM
same,TGI,[35],39.6 µM
same,TGI,[36],37.4 µM
same,TGI,[57],37.4 µM
same,TGI,[37],38.5 µM
same,TGI,[38],31.9 µM
same,TGI,[39],46.7 µM
same,TGI,[40],35.3 µM
same,TGI,[42],34.2 µM
same,TGI,[43],36.2 µM
same,TGI,[44],36.6 µM
same,TGI,[45],36.6 µM
same,TGI,[58],31.8 µM
same,TGI,[46],30.8 µM
same,TGI,[48],34.7 µM
same,TGI,[49],49.8 µM
same,TGI,[50],31.4 µM
same,TGI,[51],46.2 µM
same,TGI,[52],32.4 µM
same,TGI,[53],29.6 µM
same,TGI,[54],32.7 µM
